Laboratory results from patent publication US11214594B2, “Antimicrobial peptide having synergistic antibacterial effect with antibiotics on multidrug resistant bacteria, and use thereof” (priority 2016, dated 2022).
Where a SMILES comes first, the peptide text is derived from it.

Assays:
Assay type in all cases: cell-based, Acinetobacter baumannii
MDRAB 12035 [1] = assay: MIC of antimicrobial peptide during combined treatment with antibiotic
Procedure, shortened: (§1)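 Strains in MH medium at 2×10^6 CFU/ml were mixed with peptide diluted stepwise (2:1) from its MIC, then antibiotic dilutions in MH medium were added to give the antibiotic MIC. The reversed set-up, peptide titrated against fixed antibiotic, gave the peptide MIC.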

MDRAB 12035 [2] = assay: MIC of antibiotic during combined treatment with antimicrobial peptide
Procedure, shortened: as §1

A. baumannii = assay: as above; details: for Antibiotic MIC, Erythromycin / Antibiotic MIC, Linezolid / Antibiotic MIC, Vancomycin: A. baumannii
Procedure, shortened: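 Checkerboard-type MIC of peptide–antibiotic mixtures in MH medium: the antibiotic was serially diluted in MH medium and added to wells, then the reversed arrangement was also tested.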

[3] = peptide treatment concentration 1 μg/ml
[4] = peptide treatment concentration 2 μg/ml
[5] = peptide treatment concentration 4 μg/ml
[6] = peptide treatment concentration 6 μg/ml
[7] = peptide treatment concentration 8 μg/ml
[8] = peptide treatment concentration 16 μg/ml
[9] = peptide treatment concentration 32 μg/ml
[10] = peptide treatment concentration 64 μg/ml
[11] = combined with peptide at 1 μg/ml
[12] = combined with peptide at 2 μg/ml
[13] = combined with peptide at 4 μg/ml
[14] = combined with peptide at 6 μg/ml
[15] = combined with peptide at 8 μg/ml
[16] = combined with peptide at 16 μg/ml
[17] = combined with peptide at 32 μg/ml
[18] = combined with peptide at 64 μg/ml

CC[C@H](C)[C@H](NC(=O)[C@H](CCCCN)NC(=O)[C@H](Cc1c[nH]c2ccccc12)NC(=O)[C@@H](N)CCCNC(=N)N)C(=O)N[C@@H](Cc1ccccc1)C(=O)N[C@@H](CCCCN)C(=O)N[C@@H](CCCCN)C(=O)N[C@H](C(=O)N1CCC[C@H]1C(=O)N[C@@H](CCCCN)C(=O)N[C@@H](Cc1ccccc1)C(=O)N[C@@H](CC(C)C)C(=O)N[C@@H](Cc1c[nH]cn1)C(=O)N[C@@H](CCC(=O)O)C(=O)N[C@@H](C)C(=O)N[C@@H](CCCCN)C(=O)N[C@@H](CCCCN)C(=O)N[C@@H](Cc1ccccc1)C(N)=O)[C@@H](C)CC [PapMA-11, RWK IFK KIP KFL HEA KKF-NH2] (H-RWKIFKKIPKFLHEAKKF-NH2; N-terminus assumed)
Peptide MIC during treatment with erythromycin (MDRAB 12035 [1]; erythromycin 8 μg/ml (Conc./MIC 1/4)): 4 µg/mL | Peptide MIC during treatment with erythromycin (MDRAB 12035 [1]; erythromycin 16 μg/ml (Conc./MIC 1/2)): 2 µg/mL | Peptide MIC during treatment with erythromycin (MDRAB 12035 [1]; erythromycin 32 μg/ml (Conc./MIC 1)): 0 µg/mL | Peptide MIC during treatment with linezolid (MDRAB 12035 [1]; linezolid 64 μg/ml (Conc./MIC 1/8)): 4 µg/mL | Peptide MIC during treatment with linezolid (MDRAB 12035 [1]; linezolid 512 μg/ml (Conc./MIC 1)): 0 µg/mL | Peptide MIC during treatment with linezolid (MDRAB 12035 [1]; linezolid […] (Conc./MIC 1/2)): 2 µg/mL | Peptide MIC during treatment with linezolid (MDRAB 12035 [1]; linezolid […] (Conc./MIC 1/4)): 2 µg/mL | Peptide MIC during treatment with vancomycin (MDRAB 12035 [1]; vancomycin 512 μg/ml (Conc./MIC 1/2)): 1 µg/mL | Peptide MIC during treatment with vancomycin (MDRAB 12035 [1]; vancomycin 1024 μg/ml (Conc./MIC 1)): 1 µg/mL | Peptide MIC during treatment with vancomycin (MDRAB 12035 [1]; vancomycin […] (Conc./MIC 1/4)): 2 µg/mL | Peptide MIC during treatment with vancomycin (MDRAB 12035 [1]; vancomycin […] (Conc./MIC 1/8)): 2 µg/mL | Erythromycin MIC during combined treatment with peptide (MDRAB 12035 [2]; [3]): 32 µg/mL | Linezolid MIC during combined treatment with peptide (MDRAB 12035 [2]; [3]): >128 µg/mL | Vancomycin MIC during combined treatment with peptide (MDRAB 12035 [2]; [3]): >128 µg/mL | Erythromycin MIC during combined treatment with peptide (MDRAB 12035 [2]; [4]): 16 µg/mL | Linezolid MIC during combined treatment with peptide (MDRAB 12035 [2]; [4]): 128 µg/mL | Vancomycin MIC during combined treatment with peptide (MDRAB 12035 [2]; [4]): 128 µg/mL | Erythromycin MIC during combined treatment with peptide (MDRAB 12035 [2]; [5]): 8 µg/mL | Linezolid MIC during combined treatment with peptide (MDRAB 12035 [2]; [5]): 64 µg/mL | Vancomycin MIC during combined treatment with peptide (MDRAB 12035 [2]; [5]): 64 µg/mL | Erythromycin MIC during combined treatment with peptide (MDRAB 12035 [2]; [6]): 2 µg/mL | Linezolid MIC during combined treatment with peptide (MDRAB 12035 [2]; [6]): 32 µg/mL | Vancomycin MIC during combined treatment with peptide (MDRAB 12035 [2]; [6]): 32 µg/mL | Erythromycin MIC during combined treatment with peptide (MDRAB 12035 [2]; [7]): 1 µg/mL | Linezolid MIC during combined treatment with peptide (MDRAB 12035 [2]; [7]): 16 µg/mL | Vancomycin MIC during combined treatment with peptide (MDRAB 12035 [2]; [7]): 32 µg/mL | Erythromycin MIC during combined treatment with peptide (MDRAB 12035 [2]; [8]): 0.5 µg/mL | Linezolid MIC during combined treatment with peptide (MDRAB 12035 [2]; [8]): 8 µg/mL | Vancomycin MIC during combined treatment with peptide (MDRAB 12035 [2]; [8]): 16 µg/mL | Erythromycin MIC during combined treatment with peptide (MDRAB 12035 [2]; [9]): 0.125 µg/mL | Linezolid MIC during combined treatment with peptide (MDRAB 12035 [2]; [9]): 2 µg/mL | Vancomycin MIC during combined treatment with peptide (MDRAB 12035 [2]; [9]): 4 µg/mL | Erythromycin MIC during combined treatment with peptide (MDRAB 12035 [2]; [10]): 0 µg/mL | Linezolid MIC during combined treatment with peptide (MDRAB 12035 [2]; [10]): 0 µg/mL | Vancomycin MIC during combined treatment with peptide (MDRAB 12035 [2]; [10]): 0 µg/mL | Synergistic effect of antibacterial activity with existing antibiotics compared with PapMA-1 (A. baumannii; A. baumannii and MDRAB 12035): level similar to that of PapMA-1 peptide | Antibiotic MIC, Erythromycin (A. baumannii; [11]): 32 µg/mL | Antibiotic MIC, Linezolid (A. baumannii; [11]): 128 µg/mL | Antibiotic MIC, Vancomycin (A. baumannii; [11]): >128 µg/mL | Antibiotic MIC, Erythromycin (A. baumannii; [12]): 16 µg/mL | Antibiotic MIC, Linezolid (A. baumannii; [12]): 128 µg/mL | Antibiotic MIC, Vancomycin (A. baumannii; [12]): 128 µg/mL | Antibiotic MIC, Erythromycin (A. baumannii; [13]): 4 µg/mL | Antibiotic MIC, Linezolid (A. baumannii; [13]): 64 µg/mL | Antibiotic MIC, Vancomycin (A. baumannii; [13]): 32 µg/mL | Antibiotic MIC, Erythromycin (A. baumannii; [14]): 1 µg/mL | Antibiotic MIC, Linezolid (A. baumannii; [14]): 32 µg/mL | Antibiotic MIC, Vancomycin (A. baumannii; [14]): 16 µg/mL | Antibiotic MIC, Erythromycin (A. baumannii; [15]): 0.5 µg/mL | Antibiotic MIC, Linezolid (A. baumannii; [15]): 16 µg/mL | Antibiotic MIC, Vancomycin (A. baumannii; [15]): 8 µg/mL | Antibiotic MIC, Erythromycin (A. baumannii; [16]): 0.25 µg/mL | Antibiotic MIC, Linezolid (A. baumannii; [16]): 8 µg/mL | Antibiotic MIC, Vancomycin (A. baumannii; [16]): 4 µg/mL | Antibiotic MIC, Erythromycin (A. baumannii; [17]): 0.125 µg/mL | Antibiotic MIC, Linezolid (A. baumannii; [17]): 2 µg/mL | Antibiotic MIC, Vancomycin (A. baumannii; [17]): 1 µg/mL | Antibiotic MIC, Erythromycin (A. baumannii; [18]): 0 µg/mL | Antibiotic MIC, Linezolid (A. baumannii; [18]): 0 µg/mL | Antibiotic MIC, Vancomycin (A. baumannii; [18]): 0 µg/mL
